The text below walks through data of ChEMBL document CHEMBL1141752, “Koniamborine, the first pyrano[3,2-b]indole alkaloid and other secondary metabolites from Boronella koniambiensis” (J Nat Prod, 2005).

As usually defined, the IC50 is the point on the concentration scale where inhibition reaches its midpoint. Lower therefore signals higher potency.

This test deals with L1210. Nature of the test: Cytotoxicity against mouse L1210 cells. It is filed as functional, cell-based.
Regarding `CC(C)=CCC/C(C)=C/COc1ccc2ccc(=O)oc2c1CC=C(C)C`, the midpoint of inhibition, the IC50, lay at 15.7 µM.
`c1cc2c(cc1CC1COCC1Cc1ccc3c(c1)OCO3)OCO2` (stereo not drawn) gave an IC50 of 72.1 µM.
Then `COc1ccc2c3occc(=O)c3n(C)c2c1` [KONIAMBORINE], with 38.2 µM.
